In PMC9873984, “Membrane cholesterol regulates inhibition and substrate transport by the glycine transporter, GlyT2” (Life Science Alliance, 2023):
Where a chain is given by its changes, count along the chain named.

How the values were obtained:
Type in all cases: cell-based
Design in all cases: expressed in transfected cells; host or cells: Xenopus laevis oocytes injected with mutant RNA (pOTV vector)
GlyT2 F515W mutant [1] = target: T1, GlyT2 F515W mutant (Homo sapiens, UniProt Q9Y345, F515W); test: Inhibitor washout time course (reversibility); settings: for Recovery at 30 Min / Half-life (transport current recovery): washout after 4 min IC50 concentration
T1 sequence (Q9Y345 1-797 F515W): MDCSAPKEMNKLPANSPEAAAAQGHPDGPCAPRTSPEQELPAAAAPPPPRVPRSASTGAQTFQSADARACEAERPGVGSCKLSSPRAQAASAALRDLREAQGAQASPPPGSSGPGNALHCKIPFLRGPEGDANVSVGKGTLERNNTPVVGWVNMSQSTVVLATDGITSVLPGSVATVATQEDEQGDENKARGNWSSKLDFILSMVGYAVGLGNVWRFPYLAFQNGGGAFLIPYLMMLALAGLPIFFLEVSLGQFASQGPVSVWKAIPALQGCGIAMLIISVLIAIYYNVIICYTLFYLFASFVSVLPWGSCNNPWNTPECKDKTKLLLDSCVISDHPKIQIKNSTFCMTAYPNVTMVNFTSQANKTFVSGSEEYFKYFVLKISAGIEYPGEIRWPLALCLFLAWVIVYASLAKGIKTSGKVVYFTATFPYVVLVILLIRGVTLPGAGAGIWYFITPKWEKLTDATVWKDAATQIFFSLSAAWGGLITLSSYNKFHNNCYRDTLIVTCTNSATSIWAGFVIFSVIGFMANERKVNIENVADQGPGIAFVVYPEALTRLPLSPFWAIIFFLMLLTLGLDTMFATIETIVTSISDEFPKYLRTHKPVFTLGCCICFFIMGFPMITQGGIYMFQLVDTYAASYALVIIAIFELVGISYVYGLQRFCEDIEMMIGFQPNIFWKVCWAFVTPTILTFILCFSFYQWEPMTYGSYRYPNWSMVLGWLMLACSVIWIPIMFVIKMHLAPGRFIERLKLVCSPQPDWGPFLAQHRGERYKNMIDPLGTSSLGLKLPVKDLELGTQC
Procedure: Reversibility of GlyT2 inhibitors was determined by applying an EC50 concentration of glycine followed by co-application of the inhibitor at an IC50 concentration once a stable current had been achieved. Inhibitors were applied for 4 min as this was sufficient time to produce substantial inhibition for each compound and allowed for their direct comparison. At the conclusion of 4 min (time 0), ND96 buffer was perfused through the recording chamber to wash the oocyte. […] Transport currents were normalized to glycine currents in the absence of inhibitor and converted to % recovery values via Y=It−It=0/Imax−It=0, where Y is % recovery, I is current in nA, Imax is the maximal current produced by the glycine EC50, and t is time in minutes. Washout kinetics were then determined by fitting % recovery values to the first-order rate equation: Y=(Y0−Plateau).e^(−Kt)+Plateau, where Y is the % recovery, Y0 is the point, which crosses the Y-axis (constrained to 0) and increases to the plateau (constrained to between 0 and 100), K is the rate constant (1/t), and t is time in minutes. […] Because of the slowly […] nature of the inhibitors, washout time courses involving cyclodextrin treatment could not be performed on the same cell. […] As these experiments could not occur on the same cell, differences in half-life and maximal recovery were analysed via an unpaired two-tailed t test.

GlyT2 F515W mutant [2] = target: T1, GlyT2 F515W mutant; test: Inhibitor concentration–responses on glycine transport currents, two-electrode voltage clamp; settings: for IC50: F515W GlyT2 in Xenopus laevis oocytes
Procedure: (§1) Because of the slowly reversible nature of the compounds tested, inhibitor concentration–responses were performed cumulatively. An EC50 concentration of glycine was applied until a stable transport current was reached. EC50 concentrations of glycine were used to produce reliable currents for each transporter, and as the inhibitors are non-competitive, application of varying glycine concentrations is unlikely to affect their activity. Increasing concentrations of inhibitors were co-applied with glycine with each concentration producing a distinct plateau before the subsequent concentration was applied. Inhibitor concentration–responses were limited to a maximum concentration of 3 µM to mitigate the risk of changes to the free drug concentration because of micelle formation. Currents after the plateau of each inhibitor concentration were normalized to the current produced by application of glycine alone and fit using the method of least squares: Y=Bottom+(Top−Bottom)/(1+10^[X−LogIC50]), where X is log [inhibitor], Y is current normalized to glycine in the absence of inhibitor, and Top and Bottom are the maximal and minimal plateaus, respectively. The method of least squares was constrained to have the bottom value >0 and the hill slope as −1, enabling the calculation of IC50 values and the extent of inhibition produced by the maximal concentration applied.
(§2) IC50 values are presented as the mean and 95% confidence interval, whereas inhibition values are presented as the mean ± SEM. Data sets are n ≥ 5 from two batches of oocytes.

GlyT2 T512A mutant = target: T2, GlyT2 T512A mutant (Homo sapiens, UniProt Q9Y345, T512A); test: as above; settings: for IC50: T512A GlyT2 in Xenopus laevis oocytes
T2 sequence (Q9Y345 1-797 T512A): T1 sequence (Q9Y345 1-797 F515W) with T512A, W515F
Procedure: as §1, §2

Increase of recovery at 30 min compared to WT (GlyT2 F515W mutant [1]; F515W vs WT) [fold]	Recovery at 30 Min (GlyT2 F515W mutant [1]; F515W)	Inhibition at 1 µM (column head 3 μM, footnote b) (GlyT2 F515W mutant [2]; F515W, 1 µM)	IC50 (GlyT2 T512A mutant; 95% CI could not be fit) [nM]	Inhibition at 1 µM (column head 3 μM, footnote b) (GlyT2 T512A mutant; T512A, 1 µM)	Increase in recovery of current 30 min after application, vs WT (GlyT2 F515W mutant [1]; F515W) [%]	Half-life (transport current recovery) (GlyT2 F515W mutant [1]; F515W)	IC50 (GlyT2 F515W mutant [2]) [nM]	Inhibition at 3 μM (GlyT2 F515W mutant [2]; F515W) [%]	IC50 (GlyT2 T512A mutant) [nM]	Inhibition at 3 μM (GlyT2 T512A mutant; T512A) [%]	Compound
1.3	60.1%	57.6 ± 2.3^b %	1700	44.1 ± 2.8^b %							CCCCCCCC/C=C\CCCCCCCC(=O)O[C@H](CC(=O)[O-])C[N+](C)(C)C [Oleoyl-L-Carnitine, oleoyl-L-carnitine]
	70.1 ± 1.9 %				19.0	2.0 ± 0.2 min	400	86.7 ± 1.7	549	50.7 ± 5.7	CCCCCCCC/C=C\CCCCCCCC(=O)N[C@@H](CC(C)C)C(=O)O [Oleoyl-L-Leucine, oleoyl-L-leucine]
	57.8 ± 4.1%						689	85.3 ± 6.4	679	68.0 ± 1.7	CCCCCCCC/C=C\CCCCCCCC(=O)N[C@@H](CCCCN)C(=O)O [Oleoyl-L-Lysine, oleoyl-L-lysine]
	No Recovery					No Recovery	128	82.0 ± 3.9	85	74.4 ± 4.5	CCCCCCCC/C=C\CCCCCCCC(=O)N[C@@H](Cc1c[nH]c2ccccc12)C(=O)O [Oleoyl-L-Tryptophan, oleoyl-L-tryptophan]
